Reference: paper PMC3295232 (Journal of the American Chemical Society, 2012)
Numbering of substitutions follows the chain as printed. Where two headings read alike, the source gives them in different places.

Assays:
Assay in all cases: CD titration with propionylphosphinate
Type in all cases: binding
YPDC = biological target: T1, YPDC (Saccharomyces cerevisiae, UniProt P06169); conditions: for Kd: pH 6.0, 25 °C
T1 sequence (P06169 1-563): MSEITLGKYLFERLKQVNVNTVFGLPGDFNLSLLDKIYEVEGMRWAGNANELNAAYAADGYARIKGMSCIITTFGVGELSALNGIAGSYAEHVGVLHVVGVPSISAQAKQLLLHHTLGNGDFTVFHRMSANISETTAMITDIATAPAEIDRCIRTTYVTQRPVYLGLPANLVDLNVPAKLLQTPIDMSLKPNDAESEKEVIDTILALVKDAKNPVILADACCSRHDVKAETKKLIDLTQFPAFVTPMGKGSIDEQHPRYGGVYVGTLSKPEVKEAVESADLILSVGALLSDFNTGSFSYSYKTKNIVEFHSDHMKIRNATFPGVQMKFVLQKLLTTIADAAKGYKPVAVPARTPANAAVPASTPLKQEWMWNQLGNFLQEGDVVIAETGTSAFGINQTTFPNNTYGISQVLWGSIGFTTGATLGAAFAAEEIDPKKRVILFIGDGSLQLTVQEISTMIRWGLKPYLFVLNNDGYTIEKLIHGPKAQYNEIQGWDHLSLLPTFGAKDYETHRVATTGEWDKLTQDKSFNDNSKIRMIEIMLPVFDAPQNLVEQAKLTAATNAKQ

E91D YPDC = biological target: T2, E91D YPDC (Saccharomyces cerevisiae, UniProt P06169, E91D); conditions: for Kd: pH 6.0, 25 °C
T2 sequence (P06169 1-563 E91D): T1 sequence (P06169 1-563) with E91D

C221E/C222A YPDC = biological target: T3, C221E/C222A YPDC (Saccharomyces cerevisiae, UniProt P06169, C221E/C222A); conditions: IP form of PPThDP
T3 sequence (P06169 1-563 C221E/C222A): T1 sequence (P06169 1-563) with C221E, C222A

E51D YPDC = biological target: T4, E51D YPDC (Saccharomyces cerevisiae, UniProt P06169, E51D)
T4 sequence (P06169 1-563 E51D): T1 sequence (P06169 1-563) with E51D

E477Q YPDC = biological target: T5, E477Q YPDC (Saccharomyces cerevisiae, UniProt P06169, E477Q); conditions: pH 6.0, 25 °C
T5 sequence (P06169 1-563 E477Q): T1 sequence (P06169 1-563) with E477Q

D28A YPDC = biological target: T6, D28A YPDC (Saccharomyces cerevisiae, UniProt P06169, D28A); conditions: pH 6.0, 25 °C
T6 sequence (P06169 1-563 D28A): T1 sequence (P06169 1-563) with D28A

[1] = read-out: Kd^app (IP), 1′,4′-iminopyrimidine tautomer of PPThDP, CD band at 297 nm
[2] = read-out: Kd^app (MC), Michaelis complex, negative CD band at 330 nm

CCC(=O)[PH](=O)[O-].[Na+] [PP, sodium propionylphosphinate]
CD max (IP) (YPDC; IP form of PPThDP, 297 nm): 15.8 ± 0.79 (IP) mdeg
Kd (YPDC; [1]): 7.82 ± 0.55 mM
Kd (YPDC; [2]): 9.1 ± 0.45 mM
CD max (IP) (E91D YPDC; IP form of PPThDP, 297 nm): 7.6 ± 0.63 (IP) mdeg
CD max (MC) (E91D YPDC; Michaelis complex, 330 nm): −2.85 ± 0.18 (MC) mdeg
Kd (E91D YPDC; [1]): 7.02 ± 1.34 mM
Kd (E91D YPDC; [2]): 8.02 ± 0.92 mM
CD max (IP) (C221E/C222A YPDC): 4.7 ± 0.77 (IP) mdeg
CD max (IP) (E51D YPDC; IP form of PPThDP): 21.6 ± 0.54 (IP) mdeg
Kd (E51D YPDC; read-out: Kd^app (IP), 1′,4′-iminopyrimidine tautomer of PPThDP, CD band at 297 nm, pH 6.0, 25 °C): 13.6 ± 0.35 mM
Kd^app (E477Q YPDC): Not detected
Kd^app (D28A YPDC): Not detected
